Measurements from US5258406A, “Sulfonimidamides” (priority 1992, dated 1993).
Like-named read-outs stand apart in the source and are kept apart here.

Key:
Assay type in all cases: in vivo
HC1 = details: IP, DX 10
Description: (§1) The compounds were tested in C3H mice bearing a 6C3HED lymphosarcoma, also known as the Gardner lymphosarcoma (GLS), and in a variety of human tumor xenografts in CD1 nu/nu mice, including CX-1, LX-1, HXGC3, and VRC5. The 6C3HED lymphosarcoma was obtained from the Division of Cancer Treatment, National […] Institute, Tumor Bank, maintained at E. G. and G. Mason Research (Worcester, Mass.). The CX-1 human colon carcinoma and the LX-1 human lung carcinoma xenografts were obtained from the National Cancer Institute. The HXGC3 and VRC5 human colon xenografts were obtained from Dr. P. J. Houghton, St. Jude Children's Hospital in Memphis (see Br. J. Cancer, 37, 213 (1978)). First passage tumor was stored in liquid nitrogen using standard techniques. The transplanted tumor was reestablished from the Tumor Bank every six months or as needed. The tumor was maintained by serial passage twice weekly in C3H mice.
(§2) In the procedure the tumor was removed from passage animals and minced into 1- to 3-mm square fragments using sterile techniques. Tumor pieces were checked for sterility using both Antibiotic Medium 1 and Brain Heart Infusion (Difco, Detroit, Mich.). Recipient mice were shaved and tumor pieces were implanted subcutaneously in the auxiliary region by trocar. Drug therapy on the appropriate schedule was initiated on the day after tumor implant for 6C3HED and after a seven (7) day delay for xenografts (or other delay as noted in Table 2). The compound being tested was mixed with 2.5% Emulphor EL620 from GAF Corporation (1:40 dilution in saline). Food and water were provided ad libitium. The drug was administered orally in 0.5 ml of 2.5% Emulphor (unless otherwise indicated). The tumor was measured the day after treatment ended with two dimensional measurements (width and length) of the tumor taken using automated digital calipers interfaced to a microcomputer. Approximate weight for the tumor was calculated using the following formula [Worzalla, J. F., et al., Invest. New Drugs, 8, 241 (1990], (tumor weight in mg)=(width in mm)^2 ×(length in mm)/2.
(§3) At least one control group of an equal number of mice was treated with the same volume of 2.5% Emulphor only. The percent inhibition was determined by subtracting the ratio of the mean tumor size of the test group relative to the control group from one and multiplying the result times 100.
(§4) The results of several experiments in mice bearing a 6C3HED lymphosarcoma (or other tumor where indicated) when the indicated compounds were administered are provided in Table 2. In Table 2, column 1 gives the Example number of the compound used, column 2 lists the dose level in mg/kg, column 3 provides the percent inhibition of tumor growth, column 4 gives the number of mice which died relative to the total number of animals in the group, column 5 gives the method of administration of the compound, and column 6 gives the dosage schedule. The protocol used with other tumors was the same as with the 6C3HED lymphosarcoma.

CX1 = details: IP, DX 10, from day 7 after implant
Description: as §1, §2, §3, §4

MX1 = details: IP, DX 10
Description: as §1, §2, §3, §4

GC3 = details: IP, DX 10
Description: as §1, §2, §3, §4

B16 = details: IP, DX 10
Description: as §1, §2, §3, §4

LX1 = details: IP
Description: as §1, §2, §3, §4

VRC5 = test system: VRC5
Description: as §1, §2, §3, §4

Lewis Lung Carcinoma = assay: Inhibition of Lewis Lung Carcinoma growth in mice; details: IP, DX 10
Description: as §1, §2, §3, §4
(m) Tumor type Lewis Lung Carcinoma

colon carcinoma26 = details: IP, DX 10
Description: as §1, §2, §3, §4
(i) Tumor type colon carcinoma26

C3H mammary adenocarcin = details: IP, DX 10
Description: as §1, §2, §3, §4
(g) Tumor type C3H mammary adenocarcin

[1] = 3.75 mg/kg, DX 10 (line among ELC2 lines)
[2] = 3.75 mg/kg, DX 10, from day 7 after implant
[3] = 7.5 mg/kg, DX 10, from day 7 after implant
[4] = 15 mg/kg, DX 10, from day 7 after implant
[5] = 30 mg/kg, DX 10, from day 7 after implant
[6] = IP, 7.5 mg/kg, DX 10, from day 7 after implant
[7] = IP, 15 mg/kg, DX 10, from day 7 after implant
[8] = IP, 30 mg/kg, DX 10, from day 7 after implant
[9] = IP, 60 mg/kg, DX 10, from day 7 after implant

Cc1ccc(S(=N)(=O)NC(=O)Nc2ccc(Cl)cc2)cc1C (centres unmarked) [Example 36, N-[[(4-chlorophenyl)amino]carbonyl]-3,4-dimethylbenzenesulfonimidamide]
% inhibition of tumor growth (HC1; 7.5 mg/kg): 1%
Tox/Tot (mice which died / total) (HC1; 7.5 mg/kg): 0/10
% inhibition of tumor growth (HC1; 15 mg/kg): 24%
Tox/Tot (mice which died / total) (HC1; 15 mg/kg): 0/10
% inhibition of tumor growth (HC1; 30 mg/kg): 46%
Tox/Tot (mice which died / total) (HC1; 30 mg/kg): 6/10
% inhibition of tumor growth (HC1; 60 mg/kg): TOX
Tox/Tot (mice which died / total) (HC1; 60 mg/kg): 10/10
% inhibition of tumor growth (CX1; 3.75 mg/kg): 4%
Tox/Tot (mice which died / total) (CX1; 3.75 mg/kg): 0/10
% inhibition of tumor growth (CX1; 7.5 mg/kg): 10%
Tox/Tot (mice which died / total) (CX1; 7.5 mg/kg): 0/10
% inhibition of tumor growth (CX1; 15 mg/kg): 32%
Tox/Tot (mice which died / total) (CX1; 15 mg/kg): 1/10
% inhibition of tumor growth (CX1; 30 mg/kg): 23%
Tox/Tot (mice which died / total) (CX1; 30 mg/kg): 4/10
% inhibition of tumor growth (MX1; 3.75 mg/kg): 5%
Tox/Tot (mice which died / total) (MX1; 3.75 mg/kg): 0/10
% inhibition of tumor growth (MX1; 7.5 mg/kg): 0%
Tox/Tot (mice which died / total) (MX1; 7.5 mg/kg): 0/10
% inhibition of tumor growth (MX1; 15 mg/kg): 0%
Tox/Tot (mice which died / total) (MX1; 15 mg/kg): 0/10
% inhibition of tumor growth (MX1; 30 mg/kg): 12%
Tox/Tot (mice which died / total) (MX1; 30 mg/kg): 4/10
% inhibition of tumor growth (GC3; 3.75 mg/kg): 6%
Tox/Tot (mice which died / total) (GC3; 3.75 mg/kg): 0/10
% inhibition of tumor growth (GC3; 7.5 mg/kg): 17%
Tox/Tot (mice which died / total) (GC3; 7.5 mg/kg): 0/10
% inhibition of tumor growth (GC3; 15 mg/kg): 13%
Tox/Tot (mice which died / total) (GC3; 15 mg/kg): 1/10
% inhibition of tumor growth (GC3; 30 mg/kg): 12%
Tox/Tot (mice which died / total) (GC3; 30 mg/kg): 9/10
% inhibition of tumor growth (B16; 3.75 mg/kg): 0%
Tox/Tot (mice which died / total) (B16; 3.75 mg/kg): 0/10
% inhibition of tumor growth (B16; 7.5 mg/kg): 0%
Tox/Tot (mice which died / total) (B16; 7.5 mg/kg): 0/10
% inhibition of tumor growth (B16; 15 mg/kg): 0%
Tox/Tot (mice which died / total) (B16; 15 mg/kg): 0/10
% inhibition of tumor growth (B16; 30 mg/kg): 9%
Tox/Tot (mice which died / total) (B16; 30 mg/kg): 0/10
% inhibition of tumor growth (LX1; [1]): 0%
Tox/Tot (mice which died / total) (LX1; [1]): 0/10
% inhibition of tumor growth (LX1; [2]): 16%
Tox/Tot (mice which died / total) (LX1; [2]): 0/10
% inhibition of tumor growth (LX1; [3]): 1%
Tox/Tot (mice which died / total) (LX1; [3]): 0/10
% inhibition of tumor growth (LX1; [4]): 18%
Tox/Tot (mice which died / total) (LX1; [4]): 1/10
% inhibition of tumor growth (LX1; [5]): TOX
Tox/Tot (mice which died / total) (LX1; [5]): 10/10
% inhibition of tumor growth (VRC5; [6]): 0%
Tox/Tot (mice which died / total) (VRC5; [6]): 1/10
% inhibition of tumor growth (VRC5; [7]): 0%
Tox/Tot (mice which died / total) (VRC5; [7]): 0/10
% inhibition of tumor growth (VRC5; [8]): 44%
Tox/Tot (mice which died / total) (VRC5; [8]): 4/10
% inhibition of tumor growth (VRC5; [9]): TOX
Tox/Tot (mice which died / total) (VRC5; [9]): 10/10
% inhibition of tumor growth (VRC5; oral, 5 mg/kg, DX 10): 0%
Tox/Tot (mice which died / total) (VRC5; oral, 5 mg/kg, DX 10): 0/10
% inhibition of tumor growth (VRC5; oral, 10 mg/kg, DX 10): 10%
Tox/Tot (mice which died / total) (VRC5; oral, 10 mg/kg, DX 10): 0/10
% inhibition of tumor growth (VRC5; oral, 20 mg/kg, DX 10): 45%
Tox/Tot (mice which died / total) (VRC5; oral, 20 mg/kg, DX 10): 2/9
% inhibition of tumor growth (Lewis Lung Carcinoma; 7.5 mg/kg): 6%
Tox/Tot (mice which died / total) (Lewis Lung Carcinoma; 7.5 mg/kg): 0/10
% inhibition of tumor growth (Lewis Lung Carcinoma; 15 mg/kg): 32%
Tox/Tot (mice which died / total) (Lewis Lung Carcinoma; 15 mg/kg): 0/10
% inhibition of tumor growth (Lewis Lung Carcinoma; 30 mg/kg): 34%
Tox/Tot (mice which died / total) (Lewis Lung Carcinoma; 30 mg/kg): 0/10
% inhibition of tumor growth (colon carcinoma26; 3.75 mg/kg): 5%
Tox/Tot (mice which died / total) (colon carcinoma26; 3.75 mg/kg): 0/10
% inhibition of tumor growth (colon carcinoma26; 7.5 mg/kg): 14%
Tox/Tot (mice which died / total) (colon carcinoma26; 7.5 mg/kg): 0/10
% inhibition of tumor growth (colon carcinoma26; 15 mg/kg): 6%
Tox/Tot (mice which died / total) (colon carcinoma26; 15 mg/kg): 0/10
% inhibition of tumor growth (colon carcinoma26; 30 mg/kg): 26%
Tox/Tot (mice which died / total) (colon carcinoma26; 30 mg/kg): 0/10
% inhibition of tumor growth (C3H mammary adenocarcin; 3.75 mg/kg): 38%
Tox/Tot (mice which died / total) (C3H mammary adenocarcin; 3.75 mg/kg): 1/10
% inhibition of tumor growth (C3H mammary adenocarcin; 7.5 mg/kg): 69%
Tox/Tot (mice which died / total) (C3H mammary adenocarcin; 7.5 mg/kg): 0/10
% inhibition of tumor growth (C3H mammary adenocarcin; 15 mg/kg): 74%
Tox/Tot (mice which died / total) (C3H mammary adenocarcin; 15 mg/kg): 6/10
% inhibition of tumor growth (C3H mammary adenocarcin; 30 mg/kg): TOX
Tox/Tot (mice which died / total) (C3H mammary adenocarcin; 30 mg/kg): 10/10
